Values of other authors as cited in PMC5643362 (Acta Diabetologica, 2017).

Substance: Exendin-4
- Resistance to neural endopeptidase (neural endopeptidase): resistant
- Resistance to dipeptidyl peptidase IV (dipeptidyl peptidase IV): resistant
